This note sets out measurements from ChEMBL document CHEMBL5233234, “True or false? Challenges and recent highlights in the development of aspirin prodrugs” (Eur J Med Chem, 2020).

A short description of data set [1]: Half life in human plasma. Type of data set: ADME, cell-free.
Data set [2] is described as follows: Half life in human blood. Type of data set: ADME, tissue-based.
Data set [3] in a line: Half life of compound in human plasma. In kind it is ADME, cell-free.
Data set [4] can be described thus: Half life of compound in PBS buffer at pH 7.4. In kind it is physicochemical.
The nature of data set [5]: Half life in human plasma at 10 uM. In kind it is ADME, cell-free.
Data set [6] can be described thus: Half life of compound in PBS buffer at pH 7.4 at 50 uM by HPLC analysis. Type of data set: physicochemical.
Data set [7] is described as follows: Half life in human plasma measured after 2 days.
Data set [8] can be described thus: Half life in human liver microsomes at 1 uM measured up to 30 mins by LC-MS/MS analysis. Type of data set: ADME, Microsome.
A short description of data set [9]: Half life in human plasma by LC-MS/MS analysis. In kind it is ADME, cell-free.

In [1], `CC(=O)Oc1ccccc1C(=O)OC[S+](C)[O-]` (centres undefined) displayed a half-life of 14 min.
In [2], `CC(=O)Oc1ccccc1C(=O)O[C@@H]1CO[C@H]2[C@@H]1OC[C@@H]2OC(=O)c1ccccc1O` showed a half-life of 1 min.
Turning to `CC(=O)Oc1ccccc1C(=O)O[C@H]1CO[C@H]2[C@@H]1OC[C@H]2OC(=O)c1ccccc1OC(C)=O`, the half-life in data set [3] turned out to be 1 min.
With `COc1ccccc1COC1(C)OC(=O)c2ccccc2O1` (centres undefined), the half-life in data set [4] worked out at 26.7 min.
`CC(=O)Oc1ccccc1C(=O)OCOC(=O)c1ccc(OCCCO[N+](=O)[O-])c(OC(=O)CCN)c1` came in with a half-life at 10 µM in data set [5] of less than 1 min. In data set [6], this compound came in with a half-life at 50 µM of 57 min.
`CC(=O)Oc1ccccc1C(=O)Oc1ccccc1C=O` gave a half-life at 48 h in data set [7] of 15 min.
On to `CCOP(=O)(OCC)OCC(COC(=O)c1ccccc1OC(C)=O)OP(=O)(OCC)OCC` (centres undefined), for which the half-life at 1 µM in [8] came out at 28 min.
Turning to `CC(=O)Oc1ccccc1C(=O)O[C@H]1CO[C@H]2[C@@H]1OC[C@H]2O[N+](=O)[O-]`, the t1/2 in data set [9] turned out to be 0.183 min.
